Publication PMC10987543 (Cell Death Discovery, 2024)
“Also recorded” adds a separate entry of the source. Ends that are not written are not given here.

Assays:
[1] = tested on: 4T1 cells; experiment: LDH release assay (CyQUANT); assay type: cell-based, murine; conditions: 6 h, indicated concentrations, normalized to lysis buffer
Experimental: Ten thousand cells were seeded in a 96-well plate and incubated overnight. The cells were washed once, and the medium was replaced with serum-free media. Cells were treated with CKS1 for the indicated time and concentration. CyQUANT LDH cytotoxicity assay (Thermo Fisher Scientific) was used following the manufacturer’s instructions to measure the release of LDH. LDH release was normalized to the amount of LDH released from cells treated with lysis buffer.

[2] = tested on: CT26 tumors; experiment: CT26 colon carcinoma model, intratumoral treatment; assay type: in vivo, Balb/c mice; conditions: 40 mg/kg intratumoral daily from day 7, N = 10
Experimental: The protocols used in this study were approved by the Institutional Care and Use Committee at Johns Hopkins Medical Institutions. Four- to eight-week-old female Balb/c mice were obtained from Charles River (Wilmington, MA). For the 4T1 […] model, 2.5 × 10^4 4T1 cells were injected into the first mammary fat pad of each mouse. For the CT26 colon carcinoma model, 1.0 × 10^6 CT26 cells were injected subcutaneously in the left flank. The sample size was determined so that the final distribution would be close to normal distribution. After 1 week, the animals were randomized into control and CKS1 treatment. During the randomization, the mice were kept in a cage covered with cloth so that the investigator could not see the tumor size. We started daily intratumoral treatment with 40 mg/kg CKS1. For the control group, the matching volume of water was treated intratumorally. The tumor size was measured by using a caliper, and the volume was calculated by using the formula 0.52 × (length) × (width)^2.

[3] = tested on: 4T1 cells; experiment: Quantification of ATP release; assay type: cell-based, murine; conditions: 20 µM or 100 µM, 30 min, N = 3
Experimental: (§1) Two-lakh cells of 4T1 cells or CT26 cells in growth media were seeded in wells of a 96-well plate. After 12 h, the media was replaced with serum-free media, and the cells were treated with the corresponding concentration of CKS1. […] After filtering the supernatant with a 0.2 µm pore filter (Corning, 431229), the amount of ATP in the supernatant was quantified using the ENLITEN ATP assay system (Promega Corporation, Madison, WI, FF2000). We followed the instructions from the manufacturer when using the ENLITEN ATP assay system.

[4] = tested on: CT26 cells; experiment: Quantification of ATP release; assay type: cell-based, murine; conditions: 20 µM or 100 µM, 30 min, N = 3
Experimental: as §1

[5] = tested on: 4T1 cells; experiment: Calcein-AM live cell imaging of cytosol release; assay type: cell-based, murine
Experimental: (§2) Fluorescence labeling of cells was performed by seeding 5.0 × 10^4 4T1 cells in a 35 mm dish on a collagen-coated No. 1.5 coverslip with a 14 mm glass diameter (MatTek, Ashland, MA). After overnight incubation, the cells were washed once with serum-free media and replaced with fresh serum-free media. For cell cytosol labeling, Calcein-AM (Thermo Fisher Scientific, C1430) was added at a final concentration of 5 µg/mL and incubated for 10 min. For mitochondrial membrane labeling, JC-1 (Thermo Fisher Scientific, T3168) was added at a final concentration of 10 µg/mL and incubated for 10 min. To monitor the activity of caspases, CellEvent Caspase-3/7 Red detection reagents (Thermo Fisher Scientific, C10423) were used following the manufacturer’s instructions. For nuclear staining, Hoechst 33342 (Cell Signaling Technology, #4082) was added at a final concentration of 5 µg/mL and incubated for 10 min.
Cells were imaged on either a Zeiss LSM 700 or a 3i spinning disk confocal microscope. Samples were imaged with optimized microscope settings. Z-stack, time-lapse, or multi-channel acquisition settings were adjusted based on the experimental requirements. Images were then acquired with the appropriate excitation and emission wavelengths for each fluorophore.
(§3) Image processing was performed using Fiji software. For each image/video, the brightness and the contrast were adjusted. The time stamp and the scale bar were added. For quantification, CellProfiler was used. After cell segmentation based on the nucleus, the intensity of the signal of interest was quantified for each cell. Based on the intensity, each cells were labeled as positive or negative and the fraction of positive cells was calculated.

[6] = tested on: caspase-3; experiment: Caspase-3 activity assay in cell lysate; assay type: cell-based, murine; conditions: 4T1 cells, 100 µM, N = 3
Experimental: Ten thousand 4T1 cells were seeded in 96-well plates and incubated overnight. After CKS1 treatment, the cells were lysed using a lysis buffer (Cell Signaling Technology, #7018). The activity of caspase-3 in the cell lysate was quantified using the caspase-3 activity assay kit (Cell Signaling Technology, #5723) following the manufacturer’s instructions. Briefly, the cell lysate was incubated with a substrate of caspase-3 which was designed to emit fluorescence when cleaved. After incubation, the fluorescence was measured using a plate reader. The protein concentration of the cell lysate was quantified using the DC protein assay kit (Bio-Rad). The caspase-3 activity was divided by the protein concentration to obtain the caspase-3 activity per µg/mL protein in the cell lysate.

[7] = tested on: 4T1 murine TNBC cells; experiment: Real-time cell viability assay (xCELLigence RTCA); assay type: cell-based; conditions: serum-free media, dose-dependent, representative of N = 3
Experimental: Three thousand cells were seeded in the wells of an xCELLigence RTCA E-plate 16 (Agilent, Santa Clara, CA). After the cells adhered to the plate, the media was replaced with serum-free media, and the cells were treated with CKS1 at the indicated concentrations. The viability of the cells was monitored using the xCELLigence RTCA analyzer (Agilent).

[8] = tested on: 4T1 cells; experiment: Transmission electron microscopy of treated cells; assay type: cell-based, murine; conditions: 100 µM
Experimental: Samples were fixed in 2.5% glutaraldehyde, 3 mM MgCl2 in 0.1 M sodium cacodylate buffer, pH 7.2 overnight at 4 °C. After buffer rinse, samples were postfixed in 2% osmium tetroxide in 0.1 M sodium cacodylate for at least 1 h (no more than two) on ice in the dark. After osmium, samples were rinsed in 0.1 M Maleate buffer (pH 6.2), followed by uranyl acetate in 0.1 M Maleate (0.22 µm filtered, 1 h, dark), dehydrated in a graded series of ethanol and embedded in Epon (PolySci) resin. Samples were polymerized at 60 °C overnight. Thin sections, 60–90 nm, were cut with a diamond knife on a Leica UCT ultramicrotome and picked up with 2 × 1 mm Formvar copper slot grids. Grids were stained with 2% uranyl acetate (aq.) followed by lead citrate and observed with a Hitachi 7600 TEM at 80 kV. Images were captured with an AMT CCD XR80 (8-megapixel camera—side mount AMT XR80—high-resolution high-speed camera).

[9] = tested on: caspase-3 or caspase-7; experiment: CellEvent Caspase-3/7 live cell imaging; assay type: cell-based, murine; conditions: 4T1 cells, 100 µM
Experimental: as §2
(§4) Cells were imaged on either a Zeiss LSM 700 or a 3i spinning disk confocal microscope. Samples were imaged with optimized microscope settings. […]
as §3, with “For each image/video, the brightness and the contrast were adjusted. The time stamp and the scale bar were added.” left out

[10] = tested on: HUVECs; experiment: BrdU incorporation cell proliferation assay; assay type: cell-based, human; conditions: at a concentration in which CKS1 did not induce LDH release, N = 3
Experimental: One thousands cells were seeded in wells of a 96-well plate. The cells were treated with the indicated concentration of CKS1 immediately after seeding. Forty-eight hours later, 5-bromo-2’-deoxyuridine (BrdU) was added to each well. Twenty four hours later, BrdU incorporation was quantified using the BrdU cell proliferation assay kit (Cell Signaling Technology, Danvers, MA) following the manufacturer’s instructions.

[11] = tested on: 4T1 cells; experiment: JC-1 mitochondrial membrane potential live cell imaging; assay type: cell-based, murine; conditions: 100 µM
Experimental: as §2, §4
as §3, with “For each image/video, the brightness and the contrast were adjusted. The time stamp and the scale bar were added.” left out

NGRKACLNPASPIVKKIIEKMLNS-NH2 [CKS1, Chemokinostatin-1]
release of LDH [1]: released significant amounts of LDH
tumor growth (tumor volume) [2]: inhibited; also recorded: highly sensitive
release of ATP in the culture media [3]: significant release of ATP
release of ATP in the culture media [4]: significant release of ATP
time to release of cytosol (calcein) after treatment ([5]; 4T1 cells stained with calcein-AM, 100 µM, representative of N = 3): 15 to 30 min
fraction of cancer cells with damaged cell membrane ([5]; concentration significantly higher than the IC50 value): ~100%
caspase-3 activity in cell lysate ([6]; 30 min): not activated
caspase-3 activity in cell lysate ([6]; 4 h): activated after 4 h
time to cell death (reduction in cell index) after treatment [7]: ≤ 1 h
cell membrane integrity by electron microscopy ([8]; 30 min): ruptured after 30 min
cell morphology by electron microscopy ([8]; 6 h): apoptotic morphology
fraction of cells with activated caspases [9]: increased over time
cell proliferation (BrdU incorporation) [10]: significantly attenuated cell proliferation
mitochondrial membrane potential (JC-1 fluorescence) [11]: rapid switch of JC-1 emitted fluorescence from red to green
